Laboratory results taken from patent publication US20230111996A1, “COMPOUNDS AND CONJUGATES THEREOF” (priority 2020, published 2023).

Legend:
Type in all cases: cell-based
A549 = test: In-vitro cytotoxicity test of compounds ([…]-GLO), A549; conditions: Homo sapiens; A549, 72 hours
Method: (§1) Killing of human tumor cell lines was evaluated in vitro using the protocol recommended in the […]-GLO® kit (Promega, Madison, Wis.). Briefly, 3×10^3 cells in […] RPMI+10% FBS were added to the inner wells of white-walled 96-well plates (Corning® Costar®, Fisher Scientific, Waltham, Mass.). The following cell lines were tested: A549, HCT116 and SKBR3. The test compounds were diluted to a 5Ax stock (125 μM) in RPMI+10% FBS. Treatments were then serially diluted 1:10 in RPMI+10% FBS. […] of this series was added to the cells in triplicate, resulting in a 9-point dose curve of test compound ranging from […] at the highest concentration to 2.5×10^−7 mM at the lowest. DMSO (vehicle) and media-only controls also were included. Plates were incubated at 37° C., 5% CO2 for 72 hours. At the end of the incubation period, […] of the Substrate Solution (Promega, Madison Wis.) was added to each well. Luminescence was measured using an EnVision Multilabel plate reader (Perkin Elmer, Waltham, Mass.). Data were analyzed and graphed using GraphPad Prism software (GraphPad Software, Inc., La Jolla, Calif.).

SKBR3 = test: In-vitro cytotoxicity test of compounds ([…]-GLO), SKBR3; conditions: Homo sapiens, SK-BR-3; SKBR3, 72 hours
Method: as §1

HCT116 = test: In-vitro cytotoxicity test of compounds ([…]-GLO), HCT116; conditions: Homo sapiens, HCT-116; HCT116, 72 hours
Method: as §1

Row | Compound | IC50 (A549) | IC50 (SKBR3) | IC50 (HCT116)
1 | CC[C@@]1(O)C(=O)OCc2c1cc1n(c2=O)Cc2c-1nc1cc(F)c(N)c3c1c2CCC3 [Compound 1, (S)-4-amino-9-ethyl-5-fluoro-9-hydroxy-1,2,3,9,12,15-hexahydro-10H,13H-benzo[de]pyrano[3′,4′:6,7]indolizino[1,2-b]quinoline-10,13-dione] | 0.248 nM | 0.0958 nM | 0.164 nM
2 | CC[C@@]1(O)C(=O)OCc2c1cc1n(c2=O)Cc2c-1nc1cc(F)c(C)c3c1c2[C@@H](N)CC3 [Exatecan] | 2.45 nM | 0.181 nM | 0.996 nM
